The results in this text go back to ChEMBL document CHEMBL4052762, “Synthesis and biological evaluation of pyrrole-based chalcones as CYP1 enzyme inhibitors, for possible prevention of cancer and overcoming cisplatin resistance” (Bioorg Med Chem Lett, 2017).

Series [1] can be described thus: Selectivity ratio of IC50 for human CYP2C9 expressed in HEK293 cells to IC50 for human CYP1A2 expressed in HEK293 cells.
The species entered for series [2] is Homo sapiens. The experiment in a line: Selectivity ratio of IC50 for human CYP3A4 bound to yeast microsomal membrane to IC50 for human CYP1A2 bound to yeast microsomal membrane.
Series [3] concerns the target T1, Aryl hydrocarbon receptor (Homo sapiens, UniProt P35869).
T1 sequence (P35869 whole entry): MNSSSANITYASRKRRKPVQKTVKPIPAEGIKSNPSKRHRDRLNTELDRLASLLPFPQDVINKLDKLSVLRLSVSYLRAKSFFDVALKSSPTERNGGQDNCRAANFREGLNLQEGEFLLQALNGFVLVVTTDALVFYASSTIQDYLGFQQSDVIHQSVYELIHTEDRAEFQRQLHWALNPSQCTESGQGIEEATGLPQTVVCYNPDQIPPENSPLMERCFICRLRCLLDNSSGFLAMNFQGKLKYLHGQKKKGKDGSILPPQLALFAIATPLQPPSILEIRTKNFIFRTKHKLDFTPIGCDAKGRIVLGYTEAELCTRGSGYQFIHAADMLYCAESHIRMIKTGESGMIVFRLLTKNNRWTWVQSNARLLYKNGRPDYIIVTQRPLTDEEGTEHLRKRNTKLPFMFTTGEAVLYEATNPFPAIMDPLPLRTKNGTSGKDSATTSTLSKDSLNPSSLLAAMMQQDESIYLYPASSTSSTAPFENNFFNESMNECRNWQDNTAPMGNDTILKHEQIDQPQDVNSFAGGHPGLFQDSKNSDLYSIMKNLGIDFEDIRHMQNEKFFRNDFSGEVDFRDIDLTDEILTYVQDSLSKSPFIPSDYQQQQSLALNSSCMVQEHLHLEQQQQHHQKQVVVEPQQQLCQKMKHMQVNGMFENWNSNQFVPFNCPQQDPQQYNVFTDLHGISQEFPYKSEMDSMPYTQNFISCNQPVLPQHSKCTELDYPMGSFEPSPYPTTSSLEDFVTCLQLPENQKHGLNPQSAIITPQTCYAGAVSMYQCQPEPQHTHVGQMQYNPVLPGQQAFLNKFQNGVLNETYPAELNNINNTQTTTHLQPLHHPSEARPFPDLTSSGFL
The experiment in a line: Antagonist activity at human AhR expressed in Saccharomyces cerevisiae W303-1A (ATCC 208352) transformed with an episomal plasmid containing a minimal CYC1 promoter, with a concatemer of five XRE enhancer sequences, linked to eGFP reporter gene and co-expressing ARNT assessed as inhibition of B[a]P agonist induced XRE-driven eGFP expression by measuring eGFP units at 1 uM after 18 hrs by …. A general note: In a reporter assay the amount or activity of a reporter protein is the signal.

The target in a further series is T2, Cytochrome P450 1A1 (Homo sapiens, UniProt P04798).
T2 sequence (P04798 whole entry): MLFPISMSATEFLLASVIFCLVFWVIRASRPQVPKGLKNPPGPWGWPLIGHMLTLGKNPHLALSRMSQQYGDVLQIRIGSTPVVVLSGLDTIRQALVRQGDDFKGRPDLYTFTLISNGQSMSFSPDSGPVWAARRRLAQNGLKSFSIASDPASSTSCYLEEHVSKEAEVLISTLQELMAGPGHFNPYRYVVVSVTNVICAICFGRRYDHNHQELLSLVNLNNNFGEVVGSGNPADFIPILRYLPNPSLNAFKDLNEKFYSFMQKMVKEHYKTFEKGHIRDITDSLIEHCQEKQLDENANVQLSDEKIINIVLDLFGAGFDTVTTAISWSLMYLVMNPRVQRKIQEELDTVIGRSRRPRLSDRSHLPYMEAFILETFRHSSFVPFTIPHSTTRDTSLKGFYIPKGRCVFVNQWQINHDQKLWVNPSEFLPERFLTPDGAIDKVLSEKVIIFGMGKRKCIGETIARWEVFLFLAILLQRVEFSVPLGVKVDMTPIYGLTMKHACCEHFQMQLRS
Nature of the series: Inhibition of human CYP1A1 bound to yeast microsomal membrane using 7-ethoxyresorufin as substrate after 10 mins by fluorescence assay.

In series [4] the target is T3, Cytochrome P450 2C19 (Homo sapiens, UniProt P33261). The experiment in a line: Inhibition of human CYP2C19 expressed in HEK293 cells using fluorogenic 3-cyano-7-ethoxycoumarin as substrate preincubated for 30 mins followed by substrate addition measured for 60 mins by fluorescence assay. It is filed as ADME, cell-based.
A further series deals with Cytochrome P450 2D6 (Homo sapiens, UniProt P10635). The experiment in a line: Inhibition of human CYP2D6 expressed in HEK293 cells using fluorogenic 7-ethoxy-methyloxy-3-cyanocoumarin as substrate preincubated for 30 mins followed by substrate addition measured for 60 mins by fluorescence assay. It is filed as ADME, cell-based.
The nature of series [5]: Selectivity ratio of IC50 for human CYP2D6 expressed in HEK293 cells to IC50 for human CYP1A1 expressed in HEK293 cells.
For series [6], the species on record is Homo sapiens. The experiment in a line: Selectivity ratio of IC50 for human CYP2C9 bound to yeast microsomal membrane to IC50 for human CYP1A2 bound to yeast microsomal membrane.
The species entered for series [7] is Homo sapiens. Nature of the series: Selectivity ratio of IC50 for human CYP2D6 bound to yeast microsomal membrane to IC50 for human CYP1A2 bound to yeast microsomal membrane.
Series [8] is described as follows: Selectivity ratio of IC50 for human CYP3A4 expressed in HEK293 cells to IC50 for human CYP1A2 expressed in HEK293 cells.
The target of series [9] is T3, Cytochrome P450 2C19. The experiment in a line: Inhibition of human CYP2C19 bound to yeast microsomal membrane using 3-cyano-7-ethoxycoumarin as substrate after 10 mins by fluorescence assay. It is filed as ADME.
The target in another series is Cytochrome P450 2C9 (Homo sapiens, UniProt P11712). The experiment in a line: Inhibition of human CYP2C9 expressed in HEK293 cells using fluorogenic 3-cyano-7-ethoxycoumarin as preincubated for 30 mins followed by substrate addition measured for 60 mins by fluorescence assay. It is filed as ADME, cell-based.
For series [10], the species on record is Homo sapiens. The experiment in a line: Selectivity ratio of IC50 for human CYP2C19 bound to yeast microsomal membrane to IC50 for human CYP1A1 bound to yeast microsomal membrane.
Series [11] can be described thus: Selectivity ratio of IC50 for human CYP2C19 expressed in HEK293 cells to IC50 for human CYP1A2 expressed in HEK293 cells.
The nature of series [12]: Selectivity ratio of IC50 for human CYP2D6 expressed in HEK293 cells to IC50 for human CYP1B1 expressed in HEK293 cells.
The target of series [13] is T1, Aryl hydrocarbon receptor. The experiment in a line: Antagonist activity at human AhR expressed in Saccharomyces cerevisiae W303-1A (ATCC 208352) transformed with an episomal plasmid containing a minimal CYC1 promoter, with a concatemer of five XRE enhancer sequences, linked to eGFP reporter gene and co-expressing ARNT assessed as inhibition of B[a]P agonist induced XRE-driven eGFP expression by measuring eGFP units at 5 uM after 18 hrs by ….

Series [14] can be described thus: Selectivity ratio of IC50 for human CYP2C19 expressed in HEK293 cells to IC50 for human CYP1A1 expressed in HEK293 cells.
Series [15] is filed under the species Homo sapiens. Nature of the series: Selectivity ratio of IC50 for human CYP2D6 bound to yeast microsomal membrane to IC50 for human CYP1B1 bound to yeast microsomal membrane.
For series [16], the species on record is Homo sapiens. The experiment in a line: Selectivity ratio of IC50 for human CYP2C19 bound to yeast microsomal membrane to IC50 for human CYP1B1 bound to yeast microsomal membrane.
The target of series [17] is T1, Aryl hydrocarbon receptor. Nature of the series: Antagonist activity at human AhR expressed in Saccharomyces cerevisiae W303-1A (ATCC 208352) transformed with an episomal plasmid containing a minimal CYC1 promoter, with a concatemer of five XRE enhancer sequences, linked to eGFP reporter gene and co-expressing ARNT assessed as inhibition of B[a]P agonist induced XRE-driven eGFP expression by measuring eGFP units at 20 uM after 18 hrs by ….

For another series, the target named is Cytochrome P450 3A4 (Homo sapiens, UniProt P08684). Nature of the series: Inhibition of human CYP3A4 bound to yeast microsomal membrane using dibenzylfluorescein as substrate after 10 mins by fluorescence assay. It counts as ADME.
The species named for series [18] is Homo sapiens. The experiment in a line: Selectivity ratio of IC50 for human CYP2D6 bound to yeast microsomal membrane to IC50 for human CYP1A1 bound to yeast microsomal membrane.
For series [19], the species on record is Homo sapiens. The experiment in a line: Selectivity ratio of IC50 for human CYP2C9 bound to yeast microsomal membrane to IC50 for human CYP1A1 bound to yeast microsomal membrane.

Chain of Cytochrome P450 2C9 (P11712 whole entry): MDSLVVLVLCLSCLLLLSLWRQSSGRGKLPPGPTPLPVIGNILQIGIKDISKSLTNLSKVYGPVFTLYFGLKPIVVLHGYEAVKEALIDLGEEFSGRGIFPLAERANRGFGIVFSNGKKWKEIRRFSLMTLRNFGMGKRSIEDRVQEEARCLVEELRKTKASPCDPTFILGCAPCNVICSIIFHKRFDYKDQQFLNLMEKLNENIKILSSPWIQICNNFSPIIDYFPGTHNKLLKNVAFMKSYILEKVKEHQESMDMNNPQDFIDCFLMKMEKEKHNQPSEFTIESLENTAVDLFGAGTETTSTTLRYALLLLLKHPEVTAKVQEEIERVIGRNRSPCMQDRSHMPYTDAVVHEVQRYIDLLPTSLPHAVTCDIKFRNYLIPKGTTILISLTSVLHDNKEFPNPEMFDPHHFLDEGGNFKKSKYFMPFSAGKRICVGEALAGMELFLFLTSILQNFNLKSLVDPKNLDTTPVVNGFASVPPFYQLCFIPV
Chain of Cytochrome P450 3A4 (P08684 whole entry): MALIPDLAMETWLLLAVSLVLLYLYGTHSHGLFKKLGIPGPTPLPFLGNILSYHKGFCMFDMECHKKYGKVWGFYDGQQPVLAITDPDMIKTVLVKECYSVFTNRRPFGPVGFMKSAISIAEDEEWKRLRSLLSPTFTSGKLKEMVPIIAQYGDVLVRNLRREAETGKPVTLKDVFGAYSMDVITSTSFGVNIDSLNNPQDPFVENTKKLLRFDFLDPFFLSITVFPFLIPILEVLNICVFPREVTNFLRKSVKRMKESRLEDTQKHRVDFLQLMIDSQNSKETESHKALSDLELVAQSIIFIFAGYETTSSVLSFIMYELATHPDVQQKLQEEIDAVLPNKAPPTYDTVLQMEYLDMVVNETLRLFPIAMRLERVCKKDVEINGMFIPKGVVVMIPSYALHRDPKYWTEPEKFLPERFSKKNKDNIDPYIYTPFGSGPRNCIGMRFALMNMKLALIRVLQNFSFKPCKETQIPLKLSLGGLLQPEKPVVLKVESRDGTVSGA
T3 sequence (P33261 whole entry): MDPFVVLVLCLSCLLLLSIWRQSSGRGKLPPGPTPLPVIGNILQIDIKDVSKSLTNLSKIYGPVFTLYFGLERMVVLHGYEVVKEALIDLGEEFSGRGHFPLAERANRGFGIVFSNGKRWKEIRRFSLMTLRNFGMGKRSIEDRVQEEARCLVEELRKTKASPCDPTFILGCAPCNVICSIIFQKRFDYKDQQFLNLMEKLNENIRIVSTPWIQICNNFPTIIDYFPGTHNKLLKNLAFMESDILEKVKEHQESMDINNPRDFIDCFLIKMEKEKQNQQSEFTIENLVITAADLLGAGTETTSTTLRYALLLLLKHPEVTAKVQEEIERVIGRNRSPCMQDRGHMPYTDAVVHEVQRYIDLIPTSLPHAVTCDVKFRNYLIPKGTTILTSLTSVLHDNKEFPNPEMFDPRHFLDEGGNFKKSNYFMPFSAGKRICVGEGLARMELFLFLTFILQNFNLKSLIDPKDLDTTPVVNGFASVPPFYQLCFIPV
Chain of Cytochrome P450 2D6 (P10635 whole entry): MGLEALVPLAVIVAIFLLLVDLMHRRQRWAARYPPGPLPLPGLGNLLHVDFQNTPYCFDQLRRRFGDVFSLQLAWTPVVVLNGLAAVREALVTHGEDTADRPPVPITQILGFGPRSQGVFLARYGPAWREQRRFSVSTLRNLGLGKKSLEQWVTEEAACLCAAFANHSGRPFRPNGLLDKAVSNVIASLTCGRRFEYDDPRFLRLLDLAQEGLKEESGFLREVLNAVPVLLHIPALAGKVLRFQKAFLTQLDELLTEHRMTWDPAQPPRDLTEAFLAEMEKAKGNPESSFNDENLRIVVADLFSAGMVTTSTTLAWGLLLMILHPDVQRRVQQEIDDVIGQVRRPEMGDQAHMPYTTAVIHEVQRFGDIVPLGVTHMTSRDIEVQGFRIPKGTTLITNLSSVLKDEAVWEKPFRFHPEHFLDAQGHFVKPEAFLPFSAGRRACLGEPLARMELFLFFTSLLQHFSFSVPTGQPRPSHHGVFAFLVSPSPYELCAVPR

Regarding `O=C(/C=C/c1ccccc1Cl)c1ccc[nH]1`, the “Ratio IC50” value (in series [1]; in the series listed under Homo sapiens [2]; in series [5]; in the series listed under Homo sapiens [6]; in the series filed under Homo sapiens [7]; in series [8]) was greater than 20 throughout. Also, the Ratio IC50 (in the series listed under Homo sapiens [10]; in series [11]; in series [12]; in [14]; in the series filed under Homo sapiens [15]; in the series filed under Homo sapiens [16]) was greater than 20 each time. For the same molecule, the Ratio IC50 in the series filed under Homo sapiens [18] and in the series filed under Homo sapiens [19] was greater than 20 each time. Also, the values for the Activity in series [3], in series [13] and in series [17] were 920 U, 770 U and 285 U, respectively. Further, the concentration for half-maximal inhibition (IC50) (commonly the midpoint of a concentration-inhibition curve) was 9.1 µM against Cytochrome P450 1A1; greater than 10 µM at Cytochrome P450 2C19 [4]; greater than 10 µM against Cytochrome P450 2D6; greater than 20 µM against Cytochrome P450 2C19 [9]; greater than 10 µM against Cytochrome P450 2C9; greater than 20 µM at Cytochrome P450 3A4.
Turning to `COc1ccccc1/C=C/C(=O)c1ccc[nH]1`, the “Ratio IC50” value (in series [1]; in the series filed under Homo sapiens [2]; in [5]; in the series filed under Homo sapiens [6]; in the series listed under Homo sapiens [7]; in series [8]) was greater than 20 throughout. In addition, the Ratio IC50 (in the series filed under Homo sapiens [10]; in [11]; in [12]; in series [14]; in the series listed under Homo sapiens [15]; in the series listed under Homo sapiens [16]) was greater than 20 throughout. Also, the Ratio IC50 in the series filed under Homo sapiens [18] and in the series listed under Homo sapiens [19] was greater than 20 throughout. Also, the Activity is listed as 600 U in [3], 220 U in series [13] and 120 U in series [17]. The 50% inhibitory concentration (IC50) was 0.9 µM against Cytochrome P450 1A1; greater than 10 µM on Cytochrome P450 2C19 [4]; 20 µM against Cytochrome P450 2D6; greater than 20 µM against Cytochrome P450 2C19 [9]; greater than 10 µM against Cytochrome P450 2C9; greater than 20 µM on Cytochrome P450 3A4.
As for `O=C(/C=C/c1ccc(OC(F)(F)F)cc1)c1ccc[nH]1`, the Activity in series [3], in series [13] and in [17] was 955 U in each case. The IC50 on Cytochrome P450 1A1, against Cytochrome P450 2C19 [4], at Cytochrome P450 2D6, against Cytochrome P450 2C19 [9], against Cytochrome P450 2C9 and on Cytochrome P450 3A4 was greater than 20 µM in each case.
